Experiment: hygroscopicity of the salts
Format: physicochemical
Details: isolated solid

SMILES	hygroscopicity
CC(=O)O[C@H](CC(=O)O)C[N+](C)(C)C [Example 3, Acetyl L-carnitine Pamoate]	non-hygroscopic
CCC(=O)O[C@H](CC(=O)O)C[N+](C)(C)C [Example 1, Propionyl L-carnitine Pamoate]	non-hygroscopic
